Laboratory results from patent US20240099343A1, “USE OF GINGERDIOL COMPOUNDS TO ENHANCE FLAVOR” (Firmenich SA, priority 2021, published 2024).

Key:
[1] = Sensory testing with salt reduction, mushroom-based cream soup, panel of four expert tasters; type: in vivo; conditions: 20% reduced salt (0.684%) with 1 ppm compound, scale from 1 to 10
Description: Sensory testing was carried out using a panel of four (4) expert tasters, who rated the taste of the a mushroom-based cream soup with: (a) a normal amount of salt (0.855%); (b) 20% reduced salt (0.684%); and (c) 20% reduced salt (0.684%) with 1 ppm [6]-gingerdiol-diacetate. The panelists rated the soups for salt intensity, umami intensity, bitter intensity, and overall liking on a scale from 1 to 10.

[2] = Sensory testing with salt reduction, meat flavoring formulation, panel of three expert tasters; type: in vivo; conditions: 20% reduced salt (0.646%) with 1 ppm compound, scale from 1 to 10
Description: Further sensory testing was carried out using a panel of three (3) expert tasters, who rated the taste of a meat flavoring formulation with: (a) a normal amount of salt ([…]); (b) 20% reduced salt (0.646%); and (c) 20% reduced salt (0.646%) with 1 ppm [6]-gingerdiol-diacetate. The panelists rated the soups for salt intensity, umami intensity, bitter intensity, and overall liking on a scale from 1 to 10.

## CCCCCC(CC(CCc1ccc(O)c(OC)c1)OC(C)=O)OC(C)=O (centres unmarked) [Gingerdiol, [6]-gingerdiol-diacetate]
[1]
  Bitter (bitter intensity): 0.0
  Overall Liking: 2.3
  Saltiness (salt intensity): 3.3
  Umami (umami intensity): 3.0
[2]
  Bitter (bitter intensity): 2.3
  Overall Liking: 5.0
  Saltiness (salt intensity): 5.3
  Umami (umami intensity): 4.0
